Results taken from the NIST ThermoML archive (doi:10.1021/je050399c).

Settings: Fluid (supercritical or subcritical phases), Vibrating wire viscometry

N#N [nitrogen]
Settings	viscosity [mPa·s]
348.15 K, 25007 kPa	0.02543
348.15 K, 26007 kPa	0.02571
348.15 K, 27005 kPa	0.02598
348.15 K, 27995 kPa	0.02628
348.15 K, 29000 kPa	0.02655
348.15 K, 30021 kPa	0.02687
348.15 K, 31015 kPa	0.02717
348.15 K, 32013 kPa	0.02747
348.15 K, 33000 kPa	0.02776
348.15 K, 34013 kPa	0.02808
348.15 K, 34919 kPa	0.02833
373.15 K, 100.3 kPa	0.02102
373.15 K, 200.1 kPa	0.02106
373.15 K, 301 kPa	0.02108
373.15 K, 400.2 kPa	0.02109
373.15 K, 600.7 kPa	0.0211
373.15 K, 800.6 kPa	0.02112
373.15 K, 1000.5 kPa	0.02114
373.15 K, 1501.2 kPa	0.0212
373.15 K, 2002.1 kPa	0.02125
373.15 K, 2501.4 kPa	0.02131
373.15 K, 3003.5 kPa	0.02137
373.15 K, 3503.3 kPa	0.02144
373.15 K, 4010 kPa	0.0215
373.15 K, 4501.6 kPa	0.02157
373.15 K, 5007.4 kPa	0.02164
373.15 K, 5504.7 kPa	0.02172
373.15 K, 6000.6 kPa	0.0218
373.15 K, 6507.4 kPa	0.02188
373.15 K, 7006.9 kPa	0.02194
373.15 K, 7500.7 kPa	0.02203
373.15 K, 8002.7 kPa	0.02211
373.15 K, 8504.3 kPa	0.0222
373.15 K, 9002.1 kPa	0.02228
373.15 K, 9499.1 kPa	0.02238
373.15 K, 10010 kPa	0.02247
373.15 K, 11006 kPa	0.02267
373.15 K, 12000 kPa	0.02284
373.15 K, 13002 kPa	0.02307
373.15 K, 14010 kPa	0.02327
373.15 K, 15013 kPa	0.02348
373.15 K, 16013 kPa	0.0237
373.15 K, 17018 kPa	0.02392
373.15 K, 18001 kPa	0.02414
373.15 K, 19005 kPa	0.0244
373.15 K, 19977 kPa	0.02462
373.15 K, 21015 kPa	0.02487
373.15 K, 22011 kPa	0.0251
373.15 K, 23004 kPa	0.02536
373.15 K, 24005 kPa	0.02559
373.15 K, 25012 kPa	0.02584
373.15 K, 26006 kPa	0.0261
373.15 K, 27007 kPa	0.02635
373.15 K, 28017 kPa	0.02662
373.15 K, 29005 kPa	0.02688
373.15 K, 30003 kPa	0.02714
373.15 K, 31001 kPa	0.02741
373.15 K, 32010 kPa	0.02765
373.15 K, 33011 kPa	0.02792
373.15 K, 34006 kPa	0.02821
373.15 K, 34834 kPa	0.02844
398.15 K, 100.1 kPa	0.02203
398.15 K, 200.9 kPa	0.02207
398.15 K, 300.8 kPa	0.02209
398.15 K, 400.5 kPa	0.0221
398.15 K, 600.3 kPa	0.02212
398.15 K, 800.5 kPa	0.02213
398.15 K, 1001 kPa	0.02215
398.15 K, 1501.8 kPa	0.0222
398.15 K, 2001.3 kPa	0.02225
398.15 K, 2495.8 kPa	0.02231
398.15 K, 3000.7 kPa	0.02236
398.15 K, 3501.8 kPa	0.02242
398.15 K, 4002.8 kPa	0.02247
398.15 K, 4503.1 kPa	0.02254
398.15 K, 5003.7 kPa	0.0226
398.15 K, 5502.6 kPa	0.02266
398.15 K, 6004.9 kPa	0.02273
398.15 K, 6501.8 kPa	0.0228
398.15 K, 7005.3 kPa	0.02287
398.15 K, 7507.1 kPa	0.02294
398.15 K, 8007.6 kPa	0.02302
398.15 K, 8501 kPa	0.02311
398.15 K, 9010.3 kPa	0.02317
398.15 K, 9506.9 kPa	0.02324
398.15 K, 10005 kPa	0.02334
398.15 K, 11003 kPa	0.0235
398.15 K, 11989 kPa	0.02369
398.15 K, 13002 kPa	0.02386
398.15 K, 13997 kPa	0.02405
398.15 K, 15013 kPa	0.02423
398.15 K, 16005 kPa	0.02443
398.15 K, 17010 kPa	0.02463
398.15 K, 18010 kPa	0.02482
398.15 K, 19003 kPa	0.02503
398.15 K, 20019 kPa	0.02525
398.15 K, 21009 kPa	0.02546
398.15 K, 22011 kPa	0.02568
398.15 K, 23034 kPa	0.0259
398.15 K, 23993 kPa	0.0261
398.15 K, 25001 kPa	0.02634
398.15 K, 25977 kPa	0.02657
398.15 K, 27031 kPa	0.02679
398.15 K, 28028 kPa	0.02703
398.15 K, 29028 kPa	0.02728
398.15 K, 29911 kPa	0.02747
398.15 K, 31023 kPa	0.02773
398.15 K, 32013 kPa	0.02796
398.15 K, 33034 kPa	0.02822
398.15 K, 34043 kPa	0.02845
398.15 K, 35040 kPa	0.02872
423.15 K, 100.1 kPa	0.02302
423.15 K, 200.1 kPa	0.02305
423.15 K, 300.4 kPa	0.02307
423.15 K, 400.1 kPa	0.02309
423.15 K, 600.2 kPa	0.0231
423.15 K, 800.3 kPa	0.02312
423.15 K, 1001.1 kPa	0.02313
423.15 K, 1502.5 kPa	0.02318
423.15 K, 1997.8 kPa	0.02322
423.15 K, 2498 kPa	0.02327
423.15 K, 3002.3 kPa	0.02332
423.15 K, 3505.8 kPa	0.02337
423.15 K, 4004 kPa	0.02342
423.15 K, 4501.2 kPa	0.02348
423.15 K, 5002.7 kPa	0.02353
423.15 K, 5502.8 kPa	0.02358
423.15 K, 6002.2 kPa	0.02365
423.15 K, 6502.3 kPa	0.02372
423.15 K, 7003 kPa	0.02377
423.15 K, 7497.9 kPa	0.02384
423.15 K, 8004.2 kPa	0.02391
423.15 K, 8503 kPa	0.02398
423.15 K, 9004.2 kPa	0.02405
423.15 K, 9504.3 kPa	0.02412
423.15 K, 10006 kPa	0.02418
423.15 K, 11004 kPa	0.02434
423.15 K, 11994 kPa	0.02451
423.15 K, 13002 kPa	0.02466
423.15 K, 14011 kPa	0.02483
423.15 K, 15002 kPa	0.025
423.15 K, 16009 kPa	0.02517
423.15 K, 17009 kPa	0.02535
423.15 K, 17999 kPa	0.02554
423.15 K, 19008 kPa	0.02573
423.15 K, 20008 kPa	0.02591
423.15 K, 20987 kPa	0.02609
423.15 K, 22009 kPa	0.0263
423.15 K, 23014 kPa	0.02651
423.15 K, 24019 kPa	0.02669
423.15 K, 25024 kPa	0.02691
423.15 K, 26017 kPa	0.02711
423.15 K, 27035 kPa	0.02732
423.15 K, 28010 kPa	0.02753
423.15 K, 29015 kPa	0.02774
423.15 K, 30011 kPa	0.02794
423.15 K, 31001 kPa	0.02815
423.15 K, 31988 kPa	0.02837
423.15 K, 32989 kPa	0.02859
423.15 K, 34020 kPa	0.02882
423.15 K, 35050 kPa	0.02903
